Source: the NIST ThermoML archive (doi:10.1016/j.jct.2014.09.004)
± gives the expanded uncertainty stated by the source.

settings: Liquid; pulse heating

Critical pressure [kPa] | Critical temperature [K] | Structure (SMILES)
3170 ± 100 | 894 ± 9 | c1ccc2cc3ccccc3cc2c1 [anthracene]
3180 ± 100 | 836 ± 8 | c1ccc2c(c1)Cc1ccccc1-2 [fluorene]
3250 ± 100 | 893 ± 9 | c1ccc2c(c1)ccc1ccccc12 [phenanthrene]

Structure (SMILES) | Critical pressure [kPa] | Critical temperature [K]
c1cc2c3c(cccc3c1)CC2 [acenaphthene] | 3700 ± 110 | 820 ± 8
c1cc2ccc3cccc4ccc(c1)c2c34 [pyrene] | 3030 ± 90 | 974 ± 10
